Columns and labels:
[1] = (§1) The drug is tested on Z-030 corresponding to mouse gut metagenome with ENA study accession number: PRJEB37062 and ENA sample accession number: ERS12561829 for biotransformation under anaerobic condition. The drug concentrations were measured over 9 timepoints collected between 0 and 24 hours of incubation by liquid-chromatography-coupled mass spectrometry (LC–MS); settings: 2 µM
[2] = as §1, with “Z-026” for “Z-030”, “to” for “to mouse gut”, “ERS12561825” for “ERS12561829”; settings: 2 µM
[3] = as §1, with “Z-014” for “Z-030”, “rat” for “mouse”, “ERS12561814” for “ERS12561829”; settings: 2 µM
[4] = as §1, with “Z-001” for “Z-030”, “ERS12561801” for “ERS12561829”; settings: 2 µM
[5] = as §1, with “WLS-370” for “Z-030”, “human” for “mouse”, “ERS12561793” for “ERS12561829”; settings: 2 µM
[6] = as §1, with “WLS-310” for “Z-030”, “human” for “mouse”, “ERS12561785” for “ERS12561829”; settings: 2 µM
[7] = as §1, with “WLS-077” for “Z-030”, “human” for “mouse”, “ERS12561750” for “ERS12561829”; settings: 2 µM
[8] = as §1, with “WLS-073” for “Z-030”, “human” for “mouse”, “ERS12561749” for “ERS12561829”; settings: 2 µM
[9] = as §1, with “WLS-052” for “Z-030”, “human” for “mouse”, “ERS12561747” for “ERS12561829”; settings: 2 µM
[10] = human gut metagenome, 24 h, 2 µM
[11] = human gut metagenome, 24 h, 2 µM; remark: listed apart in the source
[12] = human gut metagenome, 24 h, 2 µM; remark: listed apart in the source
[13] = human gut metagenome, 24 h, 2 µM; remark: listed apart in the source
[14] = human gut metagenome, 24 h, 2 µM; remark: listed apart in the source
[15] = human gut metagenome, 24 h, 2 µM; remark: listed apart in the source
[16] = human gut metagenome, 24 h, 2 µM; remark: listed apart in the source
[17] = human gut metagenome, 24 h, 2 µM; remark: listed apart in the source
[18] = human gut metagenome, 24 h, 2 µM; remark: listed apart in the source
[19] = human gut metagenome, 24 h, 2 µM; remark: listed apart in the source
[20] = human gut metagenome, 24 h, 2 µM; remark: listed apart in the source
Also: call rule not given here.

Row | Bacterial Biotransformation [1] | Bacterial Biotransformation [2] | Bacterial Biotransformation [3] | Bacterial Biotransformation [4] | Bacterial Biotransformation [5] | Bacterial Biotransformation [6] | Bacterial Biotransformation [7] | Bacterial Biotransformation [8] | Bacterial Biotransformation [9] | Bacterial Biotransformation [10] | Bacterial Biotransformation [11] | Bacterial Biotransformation [12] | Bacterial Biotransformation [13] | Bacterial Biotransformation [14] | Bacterial Biotransformation [15] | Bacterial Biotransformation [16] | Bacterial Biotransformation [17] | Bacterial Biotransformation [18] | Bacterial Biotransformation [19] | Bacterial Biotransformation [20] | SMILES
1 | Compound NOT metabolized | Compound NOT metabolized | Compound NOT metabolized | Compound metabolized | Compound metabolized | Compound metabolized | Compound metabolized | Compound metabolized | Compound metabolized | Compound metabolized | Compound NOT metabolized | Compound metabolized | Compound metabolized | Compound metabolized | Compound metabolized | Compound metabolized | Compound metabolized | Compound metabolized | Compound metabolized | Compound metabolized | COC(=O)Nc1nc2ccc(C(=O)c3ccccc3)cc2[nH]1 [MEBENDAZOLE]
2 | Compound NOT metabolized | Compound NOT metabolized | Compound NOT metabolized | Compound NOT metabolized | Compound NOT metabolized | Compound NOT metabolized | Compound NOT metabolized | Compound NOT metabolized | Compound NOT metabolized | Compound NOT metabolized | Compound NOT metabolized | Compound NOT metabolized | Compound NOT metabolized | Compound NOT metabolized | Compound NOT metabolized | Compound NOT metabolized | Compound NOT metabolized | Compound NOT metabolized | Compound NOT metabolized | Compound NOT metabolized | COc1ccccc1OCC(O)COC(N)=O (stereo not given) [METHOCARBAMOL]

Second part, the compound before the results:

Row | SMILES | Bacterial Biotransformation [1] | Bacterial Biotransformation [2] | Bacterial Biotransformation [3] | Bacterial Biotransformation [4] | Bacterial Biotransformation [5] | Bacterial Biotransformation [6] | Bacterial Biotransformation [7] | Bacterial Biotransformation [8] | Bacterial Biotransformation [9] | Bacterial Biotransformation [10] | Bacterial Biotransformation [11] | Bacterial Biotransformation [12] | Bacterial Biotransformation [13] | Bacterial Biotransformation [14] | Bacterial Biotransformation [15] | Bacterial Biotransformation [16] | Bacterial Biotransformation [17] | Bacterial Biotransformation [18] | Bacterial Biotransformation [19] | Bacterial Biotransformation [20]
3 | COC1=CC(=O)C[C@@H](C)[C@]12Oc1c(Cl)c(OC)cc(OC)c1C2=O [GRISEOFULVIN] | Compound NOT metabolized | Compound metabolized | Compound metabolized | Compound metabolized | Compound metabolized | Compound metabolized | Compound metabolized | Compound metabolized | Compound metabolized | Compound metabolized | Compound NOT metabolized | Compound metabolized | Compound metabolized | Compound metabolized | Compound metabolized | Compound metabolized | Compound metabolized | Compound NOT metabolized | Compound metabolized | Compound metabolized
4 | N#Cc1ccc(C(c2ccc(C#N)cc2)n2cncn2)cc1 [LETROZOLE] | Compound NOT metabolized | Compound metabolized | Compound NOT metabolized | Compound NOT metabolized | Compound NOT metabolized | Compound NOT metabolized | Compound NOT metabolized | Compound NOT metabolized | Compound NOT metabolized | Compound NOT metabolized | Compound NOT metabolized | Compound NOT metabolized | Compound NOT metabolized | Compound NOT metabolized | Compound NOT metabolized | Compound NOT metabolized | Compound NOT metabolized | Compound NOT metabolized | Compound NOT metabolized | Compound NOT metabolized
5 | CC(Oc1c(Cl)cccc1Cl)C1=NCCN1 (stereo not given) [LOFEXIDINE] | Compound NOT metabolized | Compound NOT metabolized | Compound NOT metabolized | Compound NOT metabolized | Compound NOT metabolized | Compound metabolized | Compound NOT metabolized | Compound NOT metabolized | Compound NOT metabolized | Compound NOT metabolized | Compound NOT metabolized | Compound NOT metabolized | Compound metabolized | Compound metabolized | Compound metabolized | Compound NOT metabolized | Compound NOT metabolized | Compound NOT metabolized | Compound NOT metabolized | Compound NOT metabolized
6 | CN(C)C(=O)C(CCN1CCC(O)(c2ccc(Cl)cc2)CC1)(c1ccccc1)c1ccccc1 [LOPERAMIDE] | Compound NOT metabolized | Compound NOT metabolized | Compound metabolized | Compound metabolized | Compound metabolized | Compound metabolized | Compound metabolized | Compound NOT metabolized | Compound metabolized | Compound metabolized | Compound metabolized | Compound metabolized | Compound metabolized | Compound metabolized | Compound metabolized | Compound metabolized | Compound metabolized | Compound metabolized | Compound metabolized | Compound metabolized
7 | CCCCc1nc(Cl)c(CO)n1Cc1ccc(-c2ccccc2-c2nn[nH]n2)cc1 [LOSARTAN] | Compound NOT metabolized | Compound NOT metabolized | Compound NOT metabolized | Compound NOT metabolized | Compound metabolized | Compound metabolized | Compound NOT metabolized | Compound NOT metabolized | Compound NOT metabolized | Compound metabolized | Compound metabolized | Compound metabolized | Compound NOT metabolized | Compound metabolized | Compound metabolized | Compound metabolized | Compound metabolized | Compound metabolized | Compound metabolized | Compound metabolized
